PMC11786100, “Chronic GIPR agonism results in pancreatic islet GIPR functional desensitisation” (Molecular Metabolism, 2025)

Assays:
HFD-induced obese mice = assay: Chronic GIP108 administration to HFD-induced obese mice; format: in vivo, mouse; conditions: for body weight / food intake: n = 9–10/group
Method: In all in vivo studies, mice were randomised by body weight into groups. Mice received a 50 μL subcutaneous injection of saline (0.9% sodium chloride) or peptide at a specified dose, diluted in saline. Peptide dosing was in nmol per kg of total body weight. For the assessment of the chronic effects of GIP108, mice were injected daily for 15 days. Body composition was measured by EchoMRI on day −1 and day 15. An intraperitoneal glucose tolerance test (IPGTT) (2 g/kg) was conducted on day 14, following 6 h of fasting and 2 h after peptide injection. Non-fasting plasma leptin (ab199082, Abcam, UK), adiponectin (ab226900, Abcam, UK) and amino acids (ab65347, Abcam, UK) were measured on day 16. For the assessments of in vivo GIPR desensitisation, mice were injected at 17:00 with vehicle or GIP108 (30 nmol/kg) prior to an acute food intake study/IPGTT/insulin bleeds conducted the following day. Full details of the in vivo studies are provided in the supplementary methods.
HFD-induced obese mice (mean starting weight of 43.4 g) received daily injection of saline, GIP108 (30 nmol/kg) and GIP108 (100 nmol/kg) (n=9-10/group) for 15 days. Mice were injected between 16:00 and 17:00, before the beginning of the natural feeding period. Food intake and body weight were measured daily for the entirety of the study. Fat mass and lean mass were calculated on day -1 and day 15. An intraperitoneal glucose tolerance test (IPGTT) was conducted on day 14. On this day, mice received their daily injection of peptide at midday rather than between 16:00 and 17:00. The mice were culled on day 16 via decapitation to allow for collection of large volumes of blood for plasma analysis.
Mice were fasted at 08:00. For all studies, 20% glucose was administered at 14:00, with the injection volume adjusted to the body weight of the mouse such that each mouse received glucose at 2 g/kg. To assess effects of GIP108 on day 14 of the chronic study, mice were dosed with saline or GIP108 at a specified dose at 12:00. […] Blood glucose measurements were taken via tail vein venesection at baseline, t=15, t=30, t=60, t=90 and t=120 mins. Glucose AUC is calculated using y=0. Glucose readings were measured in mmol/L using the same GlucoRx glucometer.
Body composition was measured using an EchoMRI^TM machine. This allows for the measurement of lean mass, fat mass and water mass. The mass was recorded in grams. Mice were restrained in a red Perspex tube which was then inserted into the EchoMRI^TM machine. Each scan took 160 seconds. The tube was cleaned between animals to minimise stress.
Leptin, adiponectin and amino acids were quantified following chronic GIP108 administration. Plasma amino acids were measured using the Abcam L-amino acid assay kit (ab65347, Abcam, UK). Plasma adiponectin was measured using the Abcam mouse adiponectin ELISA kit (ab226900, Abcam, UK). Plasma leptin was measured using the Abcam mouse leptin ELISA kit (ab199082, Abcam, UK). All assays were performed according to the manufacturer’s protocol and were read using the SpectraMax i3x Microplate Reader (Molecular Devices, US).

SNAP-tagged mouse GLP-1R = target: T1, SNAP-tagged mouse GLP-1R (Mus musculus, UniProt O35659); assay: Internalisation and receptor surface expression assays in AD-293 cells; format: cell-based; conditions: 10 nM
T1 construct: host or cells: AD-293
T1 sequence (O35659 22-463): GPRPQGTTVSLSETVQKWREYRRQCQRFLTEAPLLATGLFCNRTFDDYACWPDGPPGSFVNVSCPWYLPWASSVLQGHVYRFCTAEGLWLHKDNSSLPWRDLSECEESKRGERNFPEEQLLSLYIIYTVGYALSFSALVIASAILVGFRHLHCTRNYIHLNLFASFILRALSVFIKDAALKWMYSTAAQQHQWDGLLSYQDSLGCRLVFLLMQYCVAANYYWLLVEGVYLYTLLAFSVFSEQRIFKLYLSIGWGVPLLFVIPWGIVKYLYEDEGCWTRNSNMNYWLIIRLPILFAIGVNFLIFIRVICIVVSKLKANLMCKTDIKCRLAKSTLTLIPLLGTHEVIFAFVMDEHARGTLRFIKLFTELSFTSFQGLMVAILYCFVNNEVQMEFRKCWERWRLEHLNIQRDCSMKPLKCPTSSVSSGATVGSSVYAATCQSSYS
Method: AD-293 cells were transfected with desired plasmid DNA encoding a SNAP-tagged G-protein coupled receptor (GPCR) 24 h prior to assay. For 1 h internalisation assays, cells were labelled for 10 min with cleavable SNAP-tag probe BG-S-S-649 (New England BioLabs, US). Following 1 h treatment with specified peptide, cells were imaged at baseline and after addition of 2-mercaptoethane sulfonate (Mesna). For 4-hour GPCR surface expression assays, cells were treated with the specified peptide for 4 h, prior to 10-minute labelling with BG-S-S-649 and imaging. Full details are provided in the supplementary methods.
AD-293 cells were added to a 96-well plate and maintained in 200 μl complete DMEM. 150 ng of mouse or human SNAP-tagged plasmid GIPR DNA, or 100 ng of mouse or human SNAP-tagged plasmid GLP-1R DNA was added to each well alongside Lipofectamine 2000 (Thermo Fisher, UK) and left for 24 hours.
For 1 hour internalisation assays, cells were labelled with cleavable SNAP-tag probe BG-S-S-649 (New England BioLabs, US) in complete DMEM for 10 minutes prior to washing and 1 hour treatment with specified peptide, reconstituted in DMEM + 0.1% BSA. […] GPCR internalisation was quantified as the cell fluorescence following Mesna addition (representing internalised GPCR), corrected for the baseline cell fluorescence (representing total cellular GPCR). […]

[1] = 30 nmol/kg daily s.c. over two weeks
[2] = 100 nmol/kg daily s.c. over two weeks, EchoMRI
[3] = 100 nmol/kg daily s.c. over two weeks
[4] = 30 or 100 nmol/kg daily s.c., fed state 16 h after last injection

Compound	fat mass (HFD-induced obese mice; 30 nmol/kg daily s.c. over two weeks, EchoMRI)	body weight (HFD-induced obese mice; [1])	food intake (HFD-induced obese mice; [1])	fat mass (HFD-induced obese mice; [2])	lean mass (HFD-induced obese mice; [2])	body weight (HFD-induced obese mice; [3])	food intake (HFD-induced obese mice; [3])	intraperitoneal glucose tolerance (HFD-induced obese mice; 30 and 100 nmol/kg daily s.c., IPGTT 2 g/kg on day 14, 2 h after injection)	fasting glucose (HFD-induced obese mice; 30 and 100 nmol/kg daily s.c., day 14, 2 h after injection)	plasma adiponectin (HFD-induced obese mice; [4])	plasma amino acid levels (HFD-induced obese mice; [4])	plasma leptin (HFD-induced obese mice; [4])	receptor internalisation compared to vehicle (SNAP-tagged mouse GLP-1R; 1-hour treatment, n = 3–4)	receptor internalisation (surface expression) compared to vehicle (SNAP-tagged mouse GLP-1R; 4-hours treatment, n = 7–8)
CC[C@H](C)[C@H](NC(=O)[C@H](CO)NC(=O)[C@H](Cc1ccc(O)cc1)NC(=O)[C@H](CC(=O)O)NC(=O)[C@H](CO)NC(=O)[C@@H](NC(=O)[C@H](Cc1ccccc1)NC(=O)[C@@H](NC(=O)CNC(=O)[C@H](CCC(=O)O)NC(=O)C(C)(C)NC(=O)[C@@H](N)Cc1ccc(O)cc1)[C@@H](C)O)[C@@H](C)CC)C(=O)N[C@@H](C)C(=O)N[C@@H](CC(C)C)C(=O)N[C@@H](CC(=O)O)C(=O)N[C@@H](CCCCN)C(=O)N[C@H](C(=O)N[C@@H](Cc1c[nH]cn1)C(=O)N[C@@H](CCC(N)=O)C(=O)N[C@@H](CCC(N)=O)C(=O)N[C@@H](CC(=O)O)C(=O)N[C@@H](Cc1ccccc1)C(=O)N[C@H](C(=O)N[C@@H](CC(N)=O)C(=O)N[C@@H](Cc1c[nH]c2ccccc12)C(=O)N[C@@H](CC(C)C)C(=O)N[C@@H](CC(C)C)C(=O)N[C@@H](C)C(=O)N[C@@H](CCC(N)=O)C(=O)N[C@@H](CCCCN)C(=O)NCC(=O)N[C@@H](CCCCNC(=O)CC[C@H](NC(=O)CCCCCCCCCCCCCCCCCCC(=O)O)C(=O)O)C(=O)N[C@@H](CCCCN)C(=O)N[C@@H](CC(N)=O)C(=O)N[C@@H](CC(=O)O)C(=O)N[C@@H](Cc1c[nH]c2ccccc12)C(=O)N[C@@H](CCCCN)C(=O)N[C@@H](Cc1c[nH]cn1)C(=O)N[C@@H](CC(N)=O)C(=O)N[C@H](C(=O)N[C@H](C(=O)N[C@@H](CCC(N)=O)C(=O)O)[C@@H](C)O)[C@@H](C)CC)C(C)C)[C@@H](C)CC [GIP108]	not 30 nmol/kg	had no effect on body weight	not 30 nmol/kg	significantly lowered	without reductions in lean mass	significantly lowered	significantly lowered	dose-dependent improvement	dose-dependent improvement	increased plasma adiponectin	had no impact	reduced plasma leptin		
GLP-1(7–36)·NH2													significantly increased both mouse and human GLP-1R internalisation	significantly increased both mouse and human GLP-1R internalisation
